According to US6608086B2, “Dihydropyridines and new uses thereof” (Synaptic Pharmaceutical Corporation, priority 1993, dated 2003):
Counter-ions that a name gives are not always drawn. Like-named read-outs stand apart in the source and are kept apart here. Each block holds one compound with its values, some of them ahead of it.

Columns and labels:
α2A receptor = molecular target: T1, α2A receptor (Homo sapiens, UniProt P08913); assay: Competition binding, [3H]rauwolscine, human α2A receptor
T1 construct: host or cells: LM(tk-) cells, line L-α2A
T1 sequence (P08913 1-465): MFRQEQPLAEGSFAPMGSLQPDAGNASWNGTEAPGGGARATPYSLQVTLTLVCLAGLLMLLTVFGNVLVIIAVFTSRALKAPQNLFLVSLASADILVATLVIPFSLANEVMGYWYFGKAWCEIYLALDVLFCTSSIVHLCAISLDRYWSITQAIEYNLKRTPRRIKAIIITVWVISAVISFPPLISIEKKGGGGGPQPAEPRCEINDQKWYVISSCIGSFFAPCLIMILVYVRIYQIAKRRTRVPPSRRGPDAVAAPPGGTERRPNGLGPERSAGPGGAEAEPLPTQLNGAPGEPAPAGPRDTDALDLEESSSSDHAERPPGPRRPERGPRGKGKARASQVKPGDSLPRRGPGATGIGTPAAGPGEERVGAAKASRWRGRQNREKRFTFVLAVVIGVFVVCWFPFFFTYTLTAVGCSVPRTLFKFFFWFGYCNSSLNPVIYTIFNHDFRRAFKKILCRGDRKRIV
How it was run: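 Using 25 mM glycylglycine buffer at pH 7.6 (room temperature), membranes from LM(tk−) cells carrying α2A, α2B or α2C were competed against 0.5 nM [3H]rauwolscine to equilibrium. Separation was by GF/B filtration; phentolamine (10 μM) set nonspecific binding.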

[1] = molecular target: T2, α1B Human Adrenergic Receptor (Homo sapiens, UniProt P35368); assay: Radioligand binding, [3H]prazosin, cloned human α1B adrenergic receptor
T2 construct: The entire coding region of α1B (1563 bp); expressed in transfected cells
T2 sequence (P35368 1-520): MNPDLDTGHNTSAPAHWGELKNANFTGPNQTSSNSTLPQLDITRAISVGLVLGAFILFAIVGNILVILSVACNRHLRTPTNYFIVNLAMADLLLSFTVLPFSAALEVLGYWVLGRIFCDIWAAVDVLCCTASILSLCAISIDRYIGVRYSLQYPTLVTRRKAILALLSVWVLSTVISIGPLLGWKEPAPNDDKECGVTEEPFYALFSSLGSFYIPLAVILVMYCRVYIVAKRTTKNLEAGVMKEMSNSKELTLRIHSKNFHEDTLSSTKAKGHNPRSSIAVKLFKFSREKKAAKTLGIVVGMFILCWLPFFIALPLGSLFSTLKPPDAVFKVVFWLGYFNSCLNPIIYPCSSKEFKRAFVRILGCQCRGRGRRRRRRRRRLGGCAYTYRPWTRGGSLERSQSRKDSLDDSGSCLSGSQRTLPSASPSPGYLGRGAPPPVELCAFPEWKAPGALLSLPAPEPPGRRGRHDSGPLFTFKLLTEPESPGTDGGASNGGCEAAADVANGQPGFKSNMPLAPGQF
How it was run: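 [3H]prazosin (0.5 nM) binding was run for 20 min at 37° C in pH 7.5 Tris/MgCl2/ascorbate buffer on membranes of LM(tk−) cells stably expressing the cloned receptor. Filtration through GF/B ended the reaction; 10 μM phentolamine gave nonspecific binding.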

[2] = molecular target: T3, α1A Human Adrenergic Receptor (Homo sapiens, UniProt P25100); assay: Radioligand binding, [3H]prazosin, cloned human α1A adrenergic receptor
T3 construct: The entire coding region of α1A (1719 bp); expressed in transfected cells
T3 sequence (P25100 1-572): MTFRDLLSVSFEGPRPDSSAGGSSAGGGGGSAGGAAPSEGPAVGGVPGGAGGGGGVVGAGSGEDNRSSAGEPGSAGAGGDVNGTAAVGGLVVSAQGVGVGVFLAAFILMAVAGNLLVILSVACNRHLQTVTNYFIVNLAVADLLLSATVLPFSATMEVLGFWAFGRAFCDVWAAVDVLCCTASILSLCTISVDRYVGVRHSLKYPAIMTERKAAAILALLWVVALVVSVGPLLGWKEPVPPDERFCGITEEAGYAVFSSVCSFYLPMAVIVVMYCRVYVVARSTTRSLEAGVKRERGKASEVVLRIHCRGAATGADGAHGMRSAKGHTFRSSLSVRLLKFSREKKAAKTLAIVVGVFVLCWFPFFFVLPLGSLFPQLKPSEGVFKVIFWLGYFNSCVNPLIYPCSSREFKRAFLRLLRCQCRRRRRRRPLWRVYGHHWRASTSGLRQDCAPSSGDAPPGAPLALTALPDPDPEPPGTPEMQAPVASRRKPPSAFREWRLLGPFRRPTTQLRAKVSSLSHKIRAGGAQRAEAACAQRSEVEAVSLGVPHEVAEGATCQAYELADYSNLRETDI
How it was run: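 [3H]prazosin 0.5 nM, transfected LM(tk−) membranes, 37° C, 20 min. Buffer 50 mM Tris-HCl/1 mM MgCl2/0.1% ascorbate, pH 7.5. NSB: 10 μM phentolamine. Filtration harvest.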

[3] = [3H]rauwolscine, human α2A receptor, LM(tk−) cells
[4] = cloned human α1B receptor, LM(tk−) cell membranes
[5] = [3H]prazosin, cloned human α1A receptor, LM(tk−) cell membranes
[6] = [3H]rauwolscine, human α2A receptor, LM(tk−) cells, read-out: pKi alpha-2 2a (converted)
[7] = cloned human α1B receptor, LM(tk−) cell membranes, read-out: pKi alpha-1 1b (converted)
[8] = [3H]prazosin, cloned human α1A receptor, LM(tk−) cell membranes, read-out: pKi alpha-1 1a (converted)
[9] = [3H]rauwolscine, human receptor, LM(tk-) cell lysates, mean, read-out: PKi alpha-2 2a (converted)
[10] = PKi alpha-1 1b, cloned human receptor, LM(tk-) cell membranes, mean
[11] = PKi alpha-1 1a, [3H]prazosin, cloned human receptor, LM(tk-) cell membranes, mean
[12] = cloned human receptor, LM(tk-) cell membranes, mean, read-out: PKi alpha-1 1b (converted)
[13] = [3H]prazosin, cloned human receptor, LM(tk-) cell membranes, mean, read-out: PKi alpha-1 1a (converted)

Structure (SMILES): COC(=O)C1=C(C)NC2=C(C(=O)N(CCCN3CCC(c4ccccc4)(c4ccccc4)CC3)C2)C1c1ccc([N+](=O)[O-])cc1.Cl.O (stereo not drawn) [Example 91, 1,4,7,7-Tetrahydro-3-methoxycarbonyl-6-methyl-5-oxo-4-(4-nitrophenyl)-6-(3-(4,4-diphenylpiperidin-1-yl)) propylpyrrolo[3,4-b]pyridine, hydrochloride hydrate]
pKi alpha-2 2a (α2A receptor; [3]): 6.06 | pKi alpha-1 1b [1, 4]: 6.54 | pKi alpha-1 1a [2, 5]: 6.29

Structure (SMILES): CCC1=C(C(N)=O)C(c2ccc([N+](=O)[O-])cc2)C(C(=O)NCCCN2CCC(O)(c3ccccc3)CC2)=CN1CC.Cl.O (stereo not drawn) [Example 101, 5-Carboxamido-1,6-diethyl-1,4-dihydro-3-{N-[3-(4-hydroxy-4-phenylpiperidin-1-yl)propyl]}carboxamido-4-(4-nitrophenyl)pyridine hydrochloride hydrate]
pKi alpha-2 2a (α2A receptor; [3]): 5.89 | pKi alpha-1 1b [1, 4]: 6.22 | pKi alpha-1 1a [2, 5]: 5.86

Ki (α2A receptor; [6]): 5.25 nM | Ki [1, 7]: 34.7 nM | Ki [2, 8]: 132 nM
Structure (SMILES): CCC1=C(C(N)=O)C(c2ccc([N+](=O)[O-])cc2)C(C(=O)NCCCN2CCN(c3ccccc3)CC2)=C(CC)N1 (stereo not drawn) [Example 104, 5-Carboxamido-2,6-diethyl-1,4-dihydro-4-(4-nitrophenyl)-3-{N-[3-(4-phenylpiperazin-1-yl)propyl]}carboxamido-pyridine hydrochloride hydrate]

Structure (SMILES): CCC1=C(C(N)=O)C(c2ccc([N+](=O)[O-])cc2)C(C(=O)NCCCN2CCC(c3ccccc3)(c3ccccc3)CC2)=C(CC)N1 (stereo not drawn) [Example 120, 5-Carboxamido-2,6-diethyl-1,4-dihydro-4-(4-nitrophenyl)-3-{N-[3-(4,4-diphenylpiperidin-1-yl)propyl]} carboxamidopyridine]
Ki (α2A receptor; [6]): 363 nM | pKi alpha-1 1b [1, 4]: 6.61 | pKi alpha-1 1a [2, 5]: 6.33

Ki (α2A receptor; [6]): 363 nM | Ki [1, 7]: 72.4 nM | Ki [2, 8]: 240 nM
Structure (SMILES): CCC1=C(C(N)=O)C(c2ccc([N+](=O)[O-])cc2)C(C(=O)NCCCN2CCC(c3ccccc3)CC2)=C(CC)N1 (stereo not drawn) [Example 121, 5-Carboxamido-2,6-diethyl-1,4-dihydro-4-(4-nitrophenyl)-3-{N-[3-(4-phenylpiperidin-1-yl)propyl]}carboxamidopyridine]

Structure (SMILES): CCC1=C(C(N)=O)C(c2ccc([N+](=O)[O-])cc2)C(C(=O)NC2CCN(CCc3c[nH]c4ccccc34)CC2)=CN1CC (stereo not drawn) [Example 122, 5-Carboxamido-1,4-dihydro-3-(N-{1-[2-(3-indolyl)ethyl]piperidin-4-yl}) carboxamido-1,6-diethyl-4-(4-nitrophenyl)pyridine]
pKi alpha-2 2a (α2A receptor; [3]): 6.38 | pKi alpha-1 1b [1, 4]: 7.57 | pKi alpha-1 1a [2, 5]: 6.62

Structure (SMILES): CCC1=C(C(N)=O)C(c2ccc([N+](=O)[O-])cc2)C(C(=O)NC2CCN(CCc3c[nH]c4ccccc34)CC2)=CN1CC (stereo not drawn) [Example 123, 5-Carboxamido-1,6-diethyl-1,4-dihydro-3-(N-{1-[2-(3-indolyl)ethyl]piperidin-4-yl}) carboxamide-4-(4-nitrophenyl)pyridine]
pKi alpha-2 2a (α2A receptor; [3]): 6.03 | pKi alpha-1 1b [1, 4]: 8.01 | pKi alpha-1 1a [2, 5]: 6.7

Ki (α2A receptor; [6]): 22.4 nM | Ki [1, 7]: 89.1 nM | Ki [2, 8]: 57.5 nM
Structure (SMILES): COc1ccccc1N1CCN(CCCNC(=O)C2=C(C)NC(C)=C(C(N)=O)C2c2ccc([N+](=O)[O-])cc2)CC1 (stereo not drawn) [Example 124]

Structure (SMILES): CCC1=C(C(=O)NC)C(c2ccc([N+](=O)[O-])cc2)C(C(=O)NCCCN2CCC(C#N)(c3ccccc3)CC2)=C(CC)N1 (stereo not drawn) [Example 126, 3-{N-[3-(4-Cyano-4-phenylpiperidin-1-yl)propyl]}carboxamido-1,4-dihydro-2,6-diethyl-5-(1-methyl)carboxamido-4-(4-nitrophenyl)pyridine]
pKi alpha-2 2a (α2A receptor; [3]): 5.33 | pKi alpha-1 1b [1, 4]: 5.37 | pKi alpha-1 1a [2, 5]: 5.15

Structure (SMILES): CNC(=O)C1=C(C)NC(C)=C(C(=O)NCCCN2CCC(c3ccccc3)(c3ccccc3)CC2)C1c1ccc2c(c1)OCCO2 (stereo not drawn) [Example 163]
Ki (α2A receptor; [9]): 1170 nM | Ki [1, 10]: 1020 nM | Ki [2, 11]: 776 nM

Structure (SMILES): CCC1=C(C(N)=O)C(c2ccc([N+](=O)[O-])cc2)C(C(=O)NCCCN2CCC(C(=O)OC)(c3ccccc3)CC2)=C(CCCCN=[N+]=[N-])N1 (stereo not drawn) [Example 165, 2-(4-Azidobutyl)-3-{N-[3-(4-methoxycarbonyl-4-phenylpiperidin-1-yl)propyl]}carboxamido-5-carboxamido-6-ethyl-1,4-dihydro-4-(4-nitrophenyl)pyridine]
Ki (α2A receptor; [9]): 3020 nM | Ki [1, 12]: 575 nM | Ki [2, 13]: 1410 nM

Structure (SMILES): CCC1=C(C(N)=O)C(c2ccc([N+](=O)[O-])cc2)C(C(=O)NCCCN2CCC(C(=O)OC)(c3ccccc3)CC2)=C(CCCCN)N1 (stereo not drawn) [Example 166, 2-(4-Aminobutyl)-5-carboxamido-6-ethyl-1,4-dihydro-3-{N-[3-(4-methoxycarbonyl-4-phenylpiperidin-1-yl)propyl]}carboxamido-4-(4-nitrophenyl)pyridine]
Ki (α2A receptor; [9]): 1860 nM | Ki [1, 12]: 1320 nM | Ki [2, 13]: 2340 nM

Structure (SMILES): COC(=O)C1=C(C)NC(CCCCN)=C(C(=O)NCCCN2CCC(c3ccccc3)(c3ccccc3)CC2)C1c1ccc([N+](=O)[O-])cc1 (stereo not drawn) [Example 170, 2-(4-Aminobutyl)-1,4-dihydro-5-methoxycarbonyl-6-methyl-4-(4-nitrophenyl)-3-{N-[3-(4,4-diphenylpiperidin-1-yl)propyl]}carboxamidopyridine]
Ki (α2A receptor): 6170 nM | Ki [1, 12]: 105 nM | Ki ([2]; PKi alpha-1 1a): 295 nM

Structure (SMILES): CCC1=C(C(N)=O)C(c2ccc([N+](=O)[O-])cc2)C(C(=O)NCCCN2CCC(c3ccccc3)(c3ccccc3)CC2)=C(CCCCN)N1 (stereo not drawn) [Example 171, 2-(4-Aminobutyl)-5-carboxamido-6-ethyl-1,4-dihydro-4-(4-nitrophenyl)-3-{N-[3-(4,4-diphenylpiperidin-1-yl)propyl]}carboxamidopyridine]
Ki (α2A receptor; [9]): 1100 nM | Ki [1, 10]: 617 nM | Ki [2, 11]: 1050 nM

Structure (SMILES): CCC1=C(C(=O)NC)C(c2ccc([N+](=O)[O-])cc2)C(C(=O)NCCCN2CCC(c3ccccc3)(c3ccccc3)CC2)=C(CCCCN)N1 (stereo not drawn) [Example 172, 2-(4-Aminobutyl)-6-ethyl-1,4-dihydro-5-(N-methyl)carboxamido-4-(4-nitrophenyl)-3-{N-[3-(4,4-diphenylpiperidin-1-yl)propyl]}carboxamidopyridine]
Ki (α2A receptor; [9]): 2340 nM | Ki [1, 10]: 617 nM | Ki [2, 11]: 813 nM
